Assays:
[1] = test system: patients with fibromyalgia; assay: Phase 2a study: daily fibromyalgia sleep diary (FMSD); assay type: in vivo, human; details: for Degree of being rested when waking up for the day, change from baseline, LS Mean (SE) / Degree of deep sleep, change from baseline, LS Mean (SE) / Degree of having enough sleep during the previous night, change from baseline, LS Mean (SE) / Difficulty getting comfortable, change from baseline, LS Mean (SE) / Difficulty staying asleep, change from baseline, LS Mean (SE) / Difficulty with beginning the day, change from baseline, LS Mean (SE) / Difficulty with falling asleep, change from baseline, LS Mean (SE) / Restlessness of sleep, change from baseline, LS Mean (SE): FAS, 15 mg
From the text: In some embodiments, the clinical score is a score for one or more FMSD (fibromyalgia sleep diary) items. The FMSD (Kleinman et al., 2014) is a validated 8-item patient-reported outcome that assesses sleep disturbances specific to patients with fibromyalgia across the domains of falling asleep, staying asleep, and sufficient sleep (Kleinman et al., 2014). Each day upon waking, patients rated their sleep quality over the previous night on an 11-point numerical integer rating scale (NRS). Each item is rated on an 11-point NRS, ranging from 0, which corresponds to “not at all”, to 10, which corresponds to “extremely.” FMSD items include: • difficulty with falling asleep (improvement shown as a decrease in measurement); • restlessness of sleep (improvement shown as a decrease in measurement); • difficulty getting comfortable (improvement shown as a decrease in measurement); • difficulty staying asleep (improvement shown as a decrease in measurement); • degree of deep sleep (improvement shown as an increase in measurement); • degree of being rested when waking up for the day (improvement shown as an increase in measurement); • difficulty with beginning the day (improvement shown as a decrease in measurement); and • degree of having enough sleep during the previous night (improvement shown as an increase in measurement). A phase 2a, randomized, double-blind, placebo-controlled, parallel group study was conducted at 24 sites in the United States to assess the analgesic efficacy and safety of the compound of Formula (I) in patients with fibromyalgia. The study consisted of the following: a screening period of up to 42 days, which included a washout period and a 7-day baseline diary run-in; a 57-day double-blind randomized treatment period with site visits at Days 1, 15, 29, and 57; and a 4-week follow-up period consisting of a clinic visit after 2 weeks and a phone call after 4 weeks. The study was carried out in accordance with the Declaration of Helsinki and approved by the relevant Institutional Review Boards. All participants provided written informed consent prior to the initiation of any study procedures. Male and female patients aged 18 to 80 years were included in the trial if they met the American College of Rheumatology (ACR) 1990 and 2010 fibromyalgia diagnostic criteria at screening (Wolfe et al., 1990; Wolfe et al., 2010b). The core diagnostic criteria for fibromyalgia are defined by the 1990 criteria (Wolfe et al., 1990), and while ACR has published newer criteria, the 1990 version is still commonly utilized in clinical trials. To meet ACR 1990 criteria, patients must have had widespread pain for at least 3 months, defined as the presence of pain on the right and left sides of the body, pain above and below the waist, and pain in the axial skeleton (cervical spine, anterior chest, thoracic spine, or low back) (Wolfe et al., 1990). They must also have had pain in at least 11 of 18 tender point sites on digital palpation performed with an approximate force of 4 kg. To meet the ACR 2010 criteria, patients needed to have a widespread pain index (WPI) score of ≥7 and a symptom severity (SS) scale score ≥5, or a WPI score 3-6 and an SS scale score ≥9 (Wolfe et al., 2010b). Symptoms must have been present at a similar level for at least 3 months and patients must have been free of any other disorder that could have explained the pain. […] Eligible patients were randomized 1:1 using Interactive Response Technology to receive oral Compound of Formula (I) 15 mg (three capsules of 5 mg) or matching placebo capsules, each given once daily in the morning, with or without food, for 8 weeks. Sleep disturbance was assessed as an exploratory endpoint using change from baseline to each respective week (Weeks 1-8) and from baseline to EOT in daily fibromyalgia sleep diary (FMSD) responses (Kleinman et al., 2014). […]

[2] = Nonclinical studies: toxicological profile

In the case of Cc1sc2cc(Cl)ccc2c1-c1ccc(N2CCO[C@H](CNC3CCC3)C2)c(C(=O)O)c1 [Compound of Formula (I)], the “Difficulty with falling asleep, Treatment Difference (SE) (Compound of Formula (I) - placebo)” value ([1]; EOT (LOCF), ANCOVA, 1-sided p 0.008) was −0.61 (0.25), the “Restlessness of sleep, Treatment Difference (SE) (Compound of Formula (I) - placebo)” value ([1]; EOT (LOCF), ANCOVA, 1-sided p 0.009) was −0.56 (0.23) and the “Difficulty with beginning the day, Treatment Difference (SE) (Compound of Formula (I) - placebo)” value ([1]; EOT (LOCF), ANCOVA, 1-sided p 0.044) was −0.42 (0.25). For the same compound, the “Difficulty getting comfortable, Treatment Difference (SE) (Compound of Formula (I) - placebo)” value ([1]; EOT (LOCF), ANCOVA, 1-sided p 0.054) was −0.35 (0.22), the “Degree of having enough sleep during the previous night, Treatment Difference (SE) (Compound of Formula (I) - placebo)” value ([1]; EOT (LOCF), ANCOVA, 1-sided p 0.100) was 0.32 (0.25) and the “Difficulty staying asleep, Treatment Difference (SE) (Compound of Formula (I) - placebo)” value ([1]; EOT (LOCF), ANCOVA, 1-sided p 0.158) was −0.22 (0.22). For the same compound, the “Degree of deep sleep, Treatment Difference (SE) (Compound of Formula (I) - placebo)” value ([1]; EOT (LOCF), ANCOVA, 1-sided p 0.240) was 0.16 (0.22), the “Degree of being rested when waking up for the day, Treatment Difference (SE) (Compound of Formula (I) - placebo)” value ([1]; EOT (LOCF), ANCOVA, 1-sided p 0.337) was 0.10 (0.24) and the “Degree of being rested when waking up for the day, change from baseline, LS Mean (SE)” value ([1]; EOT (LOCF), ANCOVA) was 0.78 (0.17). For the same compound, the “Degree of deep sleep, change from baseline, LS Mean (SE)” value ([1]; EOT (LOCF), ANCOVA) was 0.60 (0.16), the “Degree of having enough sleep during the previous night, change from baseline, LS Mean (SE)” value ([1]; EOT (LOCF), ANCOVA) was 1.09 (0.18) and the “Difficulty getting comfortable, change from baseline, LS Mean (SE)” value ([1]; EOT (LOCF), ANCOVA) was −1.27 (0.16). For the same compound, the “Difficulty staying asleep, change from baseline, LS Mean (SE)” value ([1]; EOT (LOCF), ANCOVA) was −1.08 (0.16), the “Difficulty with beginning the day, change from baseline, LS Mean (SE)” value ([1]; EOT (LOCF), ANCOVA) was −0.91 (0.18) and the “Difficulty with falling asleep, change from baseline, LS Mean (SE)” value ([1]; EOT (LOCF), ANCOVA) was −1.41 (0.18). For the same compound, the “Restlessness of sleep, change from baseline, LS Mean (SE)” value ([1]; EOT (LOCF), ANCOVA) was −1.50 (0.17), the “Difficulty with falling asleep, Treatment Difference (SE) (Compound of Formula (I) - placebo)” value ([1]; Week 8, MMRM, 1-sided p 0.018) was −0.56 (0.26) and the “Restlessness of sleep, Treatment Difference (SE) (Compound of Formula (I) - placebo)” value ([1]; Week 8, MMRM, 1-sided p 0.033) was −0.48 (0.26). The “Difficulty with beginning the day, Treatment Difference (SE) (Compound of Formula (I) - placebo)” value ([1]; Week 8, MMRM, 1-sided p 0.070) was −0.39 (0.26), the “Degree of having enough sleep during the previous night, Treatment Difference (SE) (Compound of Formula (I) - placebo)” value ([1]; Week 8, MMRM, 1-sided p 0.131) was 0.30 (0.27) and the “Difficulty getting comfortable, Treatment Difference (SE) (Compound of Formula (I) - placebo)” value ([1]; Week 8, MMRM, 1-sided p 0.167) was −0.23 (0.23). The “Difficulty staying asleep, Treatment Difference (SE) (Compound of Formula (I) - placebo)” value ([1]; Week 8, MMRM, 1-sided p 0.275) was −0.14 (0.24), the “Degree of deep sleep, Treatment Difference (SE) (Compound of Formula (I) - placebo)” value ([1]; Week 8, MMRM, 1-sided p 0.331) was 0.11 (0.24) and the “Degree of being rested when waking up for the day, Treatment Difference (SE) (Compound of Formula (I) - placebo)” value ([1]; Week 8, MMRM, 1-sided p 0.432) was 0.04 (0.25). For the same compound, the “Degree of being rested when waking up for the day, change from baseline, LS Mean (SE)” value ([1]; Week 8, MMRM) was 0.74 (0.18), the “Degree of deep sleep, change from baseline, LS Mean (SE)” value ([1]; Week 8, MMRM) was 0.55 (0.17) and the “Degree of having enough sleep during the previous night, change from baseline, LS Mean (SE)” value ([1]; Week 8, MMRM) was 1.10 (0.19). The “Difficulty getting comfortable, change from baseline, LS Mean (SE)” value ([1]; Week 8, MMRM) was −1.24 (0.17), the “Difficulty staying asleep, change from baseline, LS Mean (SE)” value ([1]; Week 8, MMRM) was −1.09 (0.17) and the “Difficulty with beginning the day, change from baseline, LS Mean (SE)” value ([1]; Week 8, MMRM) was −0.89 (0.19). For the same compound, the “Difficulty with falling asleep, change from baseline, LS Mean (SE)” value ([1]; Week 8, MMRM) was −1.46 (0.19), the “Restlessness of sleep, change from baseline, LS Mean (SE)” value ([1]; Week 8, MMRM) was −1.53 (0.19) and the “FMSD difficulty with falling asleep versus placebo” value ([1]; beginning at Week 2, P=0.032) was “Statistically significant improvements”. The “FMSD difficulty getting comfortable versus placebo” value ([1]; beginning at Week 3, P=0.007) was “Statistically significant improvements”, the “FMSD difficulty staying asleep versus placebo” value ([1]; beginning at Week 3, P=0.013) was “Statistically significant improvements” and the “FMSD restlessness of sleep versus placebo” value ([1]; beginning at Week 3, P=0.013) was “Statistically significant improvements”. For the same compound, the “FMSD degree of deep sleep versus placebo” value ([1]; beginning at Week 6, P=0.035) was “Statistically significant improvements”, the “FMSD difficulty with beginning the day versus placebo” value ([1]; beginning at Week 6, P=0.040) was “Statistically significant improvements” and the toxicological profile [2] was “acceptable toxicological profile”.

From US20220370468A1, “Methods of treating sleep disorders associated with pain” (Astellas Pharma Global Development, Inc., priority 2019, published 2022)
